Reference: patent publication US8445478B2 (Sanofi, priority 2007, dated 2013)
pIC50: −log10 of the molar value.

Key:
human CB1 receptor = human CB1 receptor (Homo sapiens, UniProt P21554); experiment: cell-based
Description: The compounds according to the invention were the subject of pharmacological tests for determining the activity with respect to human cannabinoid CB1-type receptors. The efficacy of the compounds of formula (I) was determined in a functional test which measures cannabinoid CB1 receptor activity (intracellular cyclic AMP test). The test for detecting intracellular cyclic AMP in U373MG cells naturally expressing the human CB1 receptor was carried out as described in the reference: Bouaboula et al., 1995, J. Biol. Chem. 270:13973-13980. The HTRF cAMP Dynamic Kit from CisBio was used to quantify the intracellular cyclic AMP.

[1] = target: T1, cannabinoid CB1-type receptor (Mus musculus, UniProt P47746); experiment: inhibition of gastrointestinal transit induced by racemic CP55,940 in mice; type: in vivo; conditions: 1 mg/kg per os; 3 hours after administration of the product; male CD1 mice; CP55,940 0.15 mg/kg ip
T1 construct: male CD1 mice received the test product per os; from tissue; host or cells: whole animal, male CD1 mice
Description: After a further 30 minutes, the animals received a charcoal bolus po. Thirty minutes later, the animals are sacrificed by euthanasia (CO2/O2) and the intestine is dissected. The progression of the charcoal bolus in the intestine is expressed as percentage of the total length of the intestine.

cannabinoid CB receptor = cannabinoid CB receptor (Mus musculus, UniProt P47746); experiment: hypothermia induced by cannabinoid CB receptor agonist CP55,940 in mice; conditions: 3 mg/kg po; male CD1 mice; CP55,940 1.25 mg/kg i.p.; rectal temperature at 90 minutes
Sequence of cannabinoid CB receptor (P47746 whole entry): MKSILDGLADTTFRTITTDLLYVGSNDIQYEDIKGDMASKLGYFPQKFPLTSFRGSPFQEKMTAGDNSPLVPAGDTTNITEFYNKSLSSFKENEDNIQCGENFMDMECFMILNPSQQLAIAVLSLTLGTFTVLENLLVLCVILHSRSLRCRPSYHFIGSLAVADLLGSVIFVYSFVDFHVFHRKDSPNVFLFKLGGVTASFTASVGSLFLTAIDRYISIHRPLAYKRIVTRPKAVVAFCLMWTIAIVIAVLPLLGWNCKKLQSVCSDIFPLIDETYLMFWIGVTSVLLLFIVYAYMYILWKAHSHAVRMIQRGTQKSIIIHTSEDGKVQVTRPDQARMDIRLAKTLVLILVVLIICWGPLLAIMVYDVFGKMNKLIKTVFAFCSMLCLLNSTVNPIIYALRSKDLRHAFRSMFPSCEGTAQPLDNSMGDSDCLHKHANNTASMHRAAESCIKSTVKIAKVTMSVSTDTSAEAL
Description: At time 0 min, the rectal temperature of male CD1 mice is measured before injection of the test product. At 30 minutes, a further measurement of the rectal temperature of the mice is taken and the racemic CP55,940 agonist ORS, 3RS, 4RS-3-[hydroxy-2-(1,1-dimethylheptyl)phenyl]-4-(3-hydroxypropyl)cyclohexan-1-ol) (1.25 mg/kg i.p. in 10% cremophor) is administered. At 90 minutes, the rectal temperature is again taken. The results are expressed as % relative to the control batch injected with the CP55,940 (minimum temperature) and to the carrier batch without CP55,940 treatment (maximum temperature).

T1 sequence (P47746 whole entry): as above
Sequence of human CB1 receptor (P21554 whole entry): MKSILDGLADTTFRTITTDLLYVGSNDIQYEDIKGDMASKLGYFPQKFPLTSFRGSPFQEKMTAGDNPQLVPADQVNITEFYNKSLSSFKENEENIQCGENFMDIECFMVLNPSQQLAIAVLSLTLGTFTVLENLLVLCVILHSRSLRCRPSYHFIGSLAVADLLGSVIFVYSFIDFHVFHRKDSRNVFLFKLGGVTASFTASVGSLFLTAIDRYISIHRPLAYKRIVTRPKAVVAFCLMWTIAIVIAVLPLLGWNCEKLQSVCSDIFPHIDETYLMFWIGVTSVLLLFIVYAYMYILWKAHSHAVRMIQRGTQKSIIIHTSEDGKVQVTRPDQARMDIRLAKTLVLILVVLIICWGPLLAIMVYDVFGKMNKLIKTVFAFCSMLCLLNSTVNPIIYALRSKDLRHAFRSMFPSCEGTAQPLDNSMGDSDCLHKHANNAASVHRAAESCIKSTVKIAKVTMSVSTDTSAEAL

CC[C@H](NC(=O)c1ccc(F)c(N(C2CN(C(c3ccc(Cl)cc3)c3ccc(Cl)cc3)C2)S(C)(=O)=O)c1)C(N)=O [compound 36]
pIC50 (human CB1 receptor): 6.02

C[C@H](NC(=O)c1cc(F)cc(NS(=O)(=O)CC2CN(C(c3ccc(Cl)cc3)c3ccc(Cl)cc3)C2)c1)C(N)=O [Compound No. 3, 3-({1-[Bis(4-chlorophenyl)methyl]azetidin-3-yl}methanesulphonylamino)-N—((S)-1-carbamoylethyl)-5-fluorobenzamide]
melting point: 228 to 230 °C

CC[C@H](NC(=O)c1cc(NS(=O)(=O)CC2CN(C(c3ccc(Cl)cc3)c3ccc(Cl)cc3)C2)cc(C(F)(F)F)c1)C(N)=O [compound 55, 3-({1-[bis(4-chlorophenyl)methyl]azetidin-3-yl}methanesulphonylamino)-N—((S)-1-carbamoylpropyl)-5-trifluoromethylbenzamide]
percentages of inhibition (gastrointestinal transit model) [1]: 74%
percentages of inhibition of the decrease in temperature induced by the agonist (cannabinoid CB receptor): 28%

NC(=O)CNC(=O)c1cccc(NS(=O)(=O)CC2CN(C(c3ccc(Cl)cc3)c3ccc(Cl)cc3)C2)c1 [compound 16, 3-({1-[bis(4-chlorophenyl)methyl]azetidin-3-yl}methanesulphonylamino)-N-(carbamoylmethyl)benzamide]
melting point: 196 to 198 °C

NC(=O)[C@H](CO)NC(=O)c1cc(F)cc(NS(=O)(=O)CC2CN(C(c3ccc(Cl)cc3)c3ccc(Cl)cc3)C2)c1 [compound 13, 3-({1-[bis(4-chlorophenyl)methyl]azetidin-3-yl}methanesulphonylamino)-N—((S)-1-carbamoyl-2-hydroxyethyl)-5-fluorobenzamide]
melting point: 212 to 214 °C

C[C@@H](NC(=O)c1cc(F)cc(NS(=O)(=O)CC2CN(C(c3ccc(Cl)cc3)c3ccc(Cl)cc3)C2)c1)C(N)=O [Compound No. 4, 3-({1-[bis(4-chlorophenyl)methyl]azetidin-3-yl}methanesulphonylamino)-N—((R)-1-carbamoylethyl)-5-fluorobenzamide]
melting point: 219 to 221 °C

CC(C)[C@H](NC(=O)c1cc(N(C2CN(C(c3ccc(Cl)cc3)c3ccc(Cl)cc3)C2)S(C)(=O)=O)cc(C(F)(F)F)c1)C(N)=O [compound 56]
pIC50 (human CB1 receptor): 7.39

CC[C@H](NC(=O)c1cccc(NS(=O)(=O)CC2CN(C(c3ccc(Cl)cc3)c3ccc(Cl)cc3)C2)c1)C(N)=O [compound 10, 3-({1-[bis(4-chlorophenyl)methyl]azetidin-3-yl}methanesulphonylamino)-N—((S)-1-carbamoylpropyl)benzamide]
melting point: 220 to 222 °C

COc1cc(NS(=O)(=O)CC2CN(C(c3ccc(Cl)cc3)c3ccc(Cl)cc3)C2)cc(C(=O)N[C@@H](C)C(N)=O)c1 (hydrate or solvate) [compound 22, 3-({1-[bis(4-chlorophenyl)methyl]azetidin-3-yl}methanesulphonylamino)-N—((S)-1-carbamoylethyl)-5-methoxybenzamide]
melting point: 183 to 185 °C

C[C@H](NC(=O)c1cc(F)cc(N(C2CN(C(c3ccc(Cl)cc3)c3ccc(Cl)cc3)C2)S(C)(=O)=O)c1)C(N)=O
percentages of inhibition (gastrointestinal transit model) [1]: 49%
pIC50 (human CB1 receptor): 8.05

C[C@@H](NC(=O)c1cc(F)cc(N(C2CN(C(c3ccc(Cl)cc3)c3ccc(Cl)cc3)C2)S(C)(=O)=O)c1)C(N)=O
pIC50 (human CB1 receptor): 6.55

NC(=O)CCCNC(=O)c1cc(F)cc(NS(=O)(=O)CC2CN(C(c3ccc(Cl)cc3)c3ccc(Cl)cc3)C2)c1 [compound 28, 3-({1-[bis(4-chlorophenyl)methyl]azetidin-3-yl}methanesulphonylamino)-N-(3-carbamoylpropyl)-5-fluorobenzamide]
melting point: 186 °C

CNC(=O)[C@H](C)NC(=O)c1cccc(NS(=O)(=O)CC2CN(C(c3ccc(Cl)cc3)c3ccc(Cl)cc3)C2)c1 [Compound No. 9, 3-({1-[bis(4-chlorophenyl)methyl]azetidin-3-yl}methanesulphonylamino)-N—((S)-1-methylcarbamoylethyl)benzamide]
melting point: 171 to 173 °C

C[C@H](NC(=O)c1cccc(N(C2CN(C(c3ccc(Cl)cc3)c3ccc(Cl)cc3)C2)S(C)(=O)=O)c1)C(N)=O
percentages of inhibition (gastrointestinal transit model) [1]: 39.2%
pIC50 (human CB1 receptor): 7.37
percentages of inhibition of the decrease in temperature induced by the agonist (cannabinoid CB receptor): 5%

CNC(=O)[C@H](C)NC(=O)c1cc(NS(=O)(=O)CC2CN(C(c3ccc(Cl)cc3)c3ccc(Cl)cc3)C2)cc(C(F)(F)F)c1 [compound 57, 3-({1-[bis(4-chlorophenyl)methyl]azetidin-3-yl}methanesulphonylamino)-N—((S)-1-methylcarbamoylethyl)-5-trifluoromethylbenzamide]
percentages of inhibition (gastrointestinal transit model) [1]: 78%
percentages of inhibition of the decrease in temperature induced by the agonist (cannabinoid CB receptor): 21%

Cc1cc(NS(=O)(=O)CC2CN(C(c3ccc(Cl)cc3)c3ccc(Cl)cc3)C2)cc(C(=O)N[C@@H](C)C(N)=O)c1 [compound 38, 3-({1-[bis(4-chlorophenyl)methyl]azetidin-3-yl}methanesulphonylamino)-N—((S)-1-carbamoylethyl)-5-methylbenzamide]
percentages of inhibition of the decrease in temperature induced by the agonist (cannabinoid CB receptor): 17%

NC(=O)CCNC(=O)c1cccc(NS(=O)(=O)CC2CN(C(c3ccc(Cl)cc3)c3ccc(Cl)cc3)C2)c1 [Compound No. 7, 3-({1-[bis(4-chlorophenyl)methyl]azetidin-3-yl}methanesulphonylamino)-N-(2-carbamoylethyl)benzamide]
melting point: 190 to 192 °C

C[C@H](NC(=O)c1cc(F)cc(N(C2CN(C(c3ccc(Br)cc3)c3ccc(Br)cc3)C2)S(C)(=O)=O)c1)C(N)=O [compound 70, 3-({1-[bis(4-bromophenyl)methyl]azetidin-3-yl}methanesulphonylamino)-N—((S)-1-carbamoylethyl)-5-fluorobenzamide]
pIC50 (human CB1 receptor): 7.51

C[C@@H](NC(=O)c1cccc(NS(=O)(=O)CC2CN(C(c3ccc(Cl)cc3)c3ccc(Cl)cc3)C2)c1)C(N)=O [Compound No. 5, 3-({1-[Bis(4-chlorophenyl)methyl]azetidin-3-yl}methanesulphonylamino)-N—((R)-1-carbamoylethyl)benzamide]
melting point: 235 °C

C[C@H](NC(=O)c1cc(N(C2CN(C(c3ccc(Cl)cc3)c3ccc(Cl)cc3)C2)S(C)(=O)=O)cc(C(F)(F)F)c1)C(=O)O [compound 68]
percentages of inhibition (gastrointestinal transit model) [1]: 7%
pIC50 (human CB1 receptor): 7.62

CNC(=O)CNC(=O)c1cccc(NS(=O)(=O)CC2CN(C(c3ccc(Cl)cc3)c3ccc(Cl)cc3)C2)c1 [compound 15, 3-({1-[bis(4-chlorophenyl)methyl]azetidin-3-yl}methanesulphonylamino)-N-(methylcarbamoylmethyl)benzamide]
melting point: 216 °C

CCOC(=O)[C@H](C)NC(=O)c1cc(F)cc(N(C2CN(C(c3ccc(Cl)cc3)c3ccc(Cl)cc3)C2)S(C)(=O)=O)c1 [compound 79]
pIC50 (human CB1 receptor): 7.15

CC[C@H](NC(=O)c1cc(F)cc(NS(=O)(=O)CC2CN(C(c3ccc(Cl)cc3)c3ccc(Cl)cc3)C2)c1)C(N)=O [compound 14, 3-({1-[bis(4-chlorophenyl)methyl]azetidin-3-yl}methanesulphonylamino)-N—((S)-1-carbamoylpropyl)-5-fluorobenzamide]
melting point: 212 to 214 °C

CNC(=O)[C@H](C)NC(=O)c1cc(F)cc(NS(=O)(=O)CC2CN(C(c3ccc(Cl)cc3)c3ccc(Cl)cc3)C2)c1 [compound 26, 3-({1-[bis(4-chlorophenyl)methyl]azetidin-3-yl}methanesulphonylamino)-5-fluoro-N—((S)-1-methylcarbamoylethyl)benzamide]
melting point: 150 °C

O=C(NCC(=O)N1CCOCC1)c1cccc(NS(=O)(=O)CC2CN(C(c3ccc(Cl)cc3)c3ccc(Cl)cc3)C2)c1 [Compound No. 8, 3-({1-[bis(4-chlorophenyl)methyl]azetidin-3-yl}methanesulphonylamino)-N-(2-morpholin-4-yl-2-oxoethyl)benzamide]
melting point: 176 °C

NC(=O)CNC(=O)c1cc(F)cc(NS(=O)(=O)CC2CN(C(c3ccc(Cl)cc3)c3ccc(Cl)cc3)C2)c1 [Compound No. 2, 3-({1-[bis(4-chlorophenyl)methyl]azetidin-3-yl}methanesulphonylamino)-N-carbamoylmethyl-5-fluorobenzamide]
melting point: 154 to 156 °C

C[C@H](NC(=O)c1cccc(NS(=O)(=O)CC2CN(C(c3ccc(Cl)cc3)c3ccc(Cl)cc3)C2)c1)C(N)=O [Compound No. 1, 3-({1-[bis(4-chlorophenyl)methyl]azetidin-3-yl}methanesulphonylamino)-N—((S)-1-carbamoylethyl)benzamide]
melting point: 229 °C
